{"source": "patent US20260355168A1", "about": "“COMPOSITIONS AND METHODS FOR TREATING AND DETECTING CANCER” (CASE WESTERN RESERVE UNIVERSITY, priority 2022, published 2026)", "key": {"PTPμ": {"target": "PTPμ (Homo sapiens, UniProt P28827)", "sequence (P28827 21-1452)": "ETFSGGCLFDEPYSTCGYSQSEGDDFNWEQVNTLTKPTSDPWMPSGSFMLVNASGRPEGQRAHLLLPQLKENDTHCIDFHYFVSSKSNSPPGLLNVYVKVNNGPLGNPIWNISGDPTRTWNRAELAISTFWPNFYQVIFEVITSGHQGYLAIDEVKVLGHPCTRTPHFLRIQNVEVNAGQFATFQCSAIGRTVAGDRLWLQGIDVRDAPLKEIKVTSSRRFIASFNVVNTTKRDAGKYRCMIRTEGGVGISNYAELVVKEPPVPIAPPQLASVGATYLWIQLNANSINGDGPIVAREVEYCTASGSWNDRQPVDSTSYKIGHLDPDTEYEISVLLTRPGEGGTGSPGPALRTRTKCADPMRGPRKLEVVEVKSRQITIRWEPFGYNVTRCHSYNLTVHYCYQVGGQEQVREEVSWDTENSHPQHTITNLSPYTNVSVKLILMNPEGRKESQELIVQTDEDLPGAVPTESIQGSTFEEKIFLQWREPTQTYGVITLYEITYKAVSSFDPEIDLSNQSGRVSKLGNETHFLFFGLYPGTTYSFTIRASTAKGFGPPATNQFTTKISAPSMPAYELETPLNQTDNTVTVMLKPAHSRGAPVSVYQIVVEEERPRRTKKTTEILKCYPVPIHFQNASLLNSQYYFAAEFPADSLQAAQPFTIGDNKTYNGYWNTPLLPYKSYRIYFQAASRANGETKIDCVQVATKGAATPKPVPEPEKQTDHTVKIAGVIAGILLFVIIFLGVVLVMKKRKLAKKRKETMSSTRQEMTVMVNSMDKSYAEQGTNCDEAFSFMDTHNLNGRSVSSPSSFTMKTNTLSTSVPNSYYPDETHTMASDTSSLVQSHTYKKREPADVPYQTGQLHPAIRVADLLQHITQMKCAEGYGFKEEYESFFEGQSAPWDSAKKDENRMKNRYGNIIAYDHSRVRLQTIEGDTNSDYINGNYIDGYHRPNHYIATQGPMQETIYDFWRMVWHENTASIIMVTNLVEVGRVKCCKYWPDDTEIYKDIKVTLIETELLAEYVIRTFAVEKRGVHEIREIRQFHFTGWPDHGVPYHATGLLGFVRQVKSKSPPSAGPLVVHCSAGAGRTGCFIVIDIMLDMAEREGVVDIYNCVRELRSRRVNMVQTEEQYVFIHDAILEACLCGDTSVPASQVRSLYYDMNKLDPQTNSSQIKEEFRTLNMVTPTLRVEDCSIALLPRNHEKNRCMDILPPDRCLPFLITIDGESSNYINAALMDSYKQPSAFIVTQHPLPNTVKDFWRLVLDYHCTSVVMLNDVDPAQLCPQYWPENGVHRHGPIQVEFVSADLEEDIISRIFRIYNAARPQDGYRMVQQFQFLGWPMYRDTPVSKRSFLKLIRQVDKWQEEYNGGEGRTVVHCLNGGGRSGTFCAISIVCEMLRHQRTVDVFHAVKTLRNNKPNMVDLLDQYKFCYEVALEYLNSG", "assay": "PTPμ-dependent Sf9 aggregation assay", "format": "cell-based", "details": "100 μM; 20 min pretreatment; in words"}, "LN229 cells [1]": {"test_system": "LN229 cells", "assay": "LN229 glioma sphere formation and growth assay", "format": "cell-based, human", "details": "100 μM, in words", "procedure": "FIGS. 5(A-E) illustrate a histogram and images showing the results of the LN229 sphere formation and growth assays. Selected inhibitors, activators, and control compounds identified in LN229 and/or U87 scratch wound closure assays were retested at 100 μM in a secondary assay for glioma cell (LN229) sphere formation and growth. A. Histogram showing the effects of the indicated compounds on sphere formation. On day 1, sphere footprint areas were determined and normalized to the average footprint area of the unblinded vehicle-treated controls. On day 1, a larger footprint area indicates inhibition of aggregation. B. Histogram showing the effects of the indicated compounds on sphere growth. On day 7, the changes in sphere footprint areas were calculated and normalized to the average size change of the unblinded vehicle-treated controls. On day 7, a smaller value indicates reduced growth. […] Data is presented as percentages±s.e.m. of 2-4 replicates. Representative images of samples treated with DMSO (C) and two priority inhibitors (D and E) are shown. Relative day 1 footprint areas and day 7 growth measurements are indicated for each example.\nFIGS. 15(A-D) illustrate a histogram and images of titration of selected compounds on LN229 sphere formation and growth. LN229 cells were plated onto non-adherent surfaces and treated with the indicated compounds at 100, 50, and 25 μM. A. On day 1, sphere footprint areas were determined and normalized to the average footprint area of the unblinded vehicle-treated controls. On day 1, a larger foot-print area indicates inhibition of aggregation. B. On day 7, the changes in sphere footprint areas were calculated and normalized to the average size change of the unblinded vehicle-treated controls. On day 7, a smaller value indicates reduced growth. […] Data is presented as percentages±s.e.m. The initial test at 100 μM and the follow-up at that dose with titration is shown. Each bar is the average of 2 replicates. Representative day 1 (C) and day 7 (D) images of samples treated with two priority inhibitors are shown. Relative day 1 sphere footprint areas and day 7 growth for each example are indicated.\n(§1) Cells were seeded at a density of 7500 cells per well into the internal wells of 96-well plates coated with 0.75% (wt/vol) PVA as previously described. Compounds were added (2×replicates per treatment) at the indicated final concentrations, and control wells were treated with matching concentrations of DMSO. The external wells of the plates were filled with PBS to buffer against edge effects, and the cells were incubated at 37 °C and 5% CO2 for 7 days. A Leica CTR6500 microscope fitted with an automated stage was used to capture brightfield images on day 1 and day 7, and sphere footprint areas were measured using Image J (v1.52a http://imagej.nih.gov/ij) as previously described. To quantify the effects of the compounds on day 1, the footprint areas of the treated wells were normalized to the average area of the matched DMSO control wells. To quantify the effects of the compounds on sphere growth, the change in the sphere footprint areas was calculated ([…]) and then normalized to the average size change of the matched DMSO samples. All values are presented as average percentages±s.e.m.\nWe tested the effects of twenty-four compounds (11 flagged as inhibitory, 4 as stimulatory, and nine as inert in the initial scratch-wound screen, FIG. 2) on the ability of LN229 cells to mediate cell-cell adhesion and grow in 3D culture on non-adherent surfaces. To quantify sphere formation (FIG. 5A), the footprint areas of aggregates were measured on day 1 and normalized to that of the DMSO control. At this time point, a larger footprint size (>120%) indicates inhibition, i.e., the failure of cells to form a compact aggregate. To quantify sphere growth (FIG. 5B), we calculated the percent changes in sphere footprint areas between day 1 and day 7 and normalized them to that of the DMSO controls."}, "Gli36 cells": {"test_system": "Gli36 cells", "assay": "Gli36 glioma sphere formation and growth assay", "format": "cell-based, human", "procedure": "FIGS. 6(A-E) illustrate a histogram and images showing the results of the Gli36 sphere formation and growth assays. Selected inhibitors, activators, and control compounds identified in LN229 and/or U87 scratch wound closure assays were retested at 100 μM in a secondary assay for glioma cell (Gli36) sphere formation and growth. A. Histogram showing the effects of the indicated compounds on Day 1 sphere footprint areas. Footprint areas were measured and normalized to the average footprint area of the unblinded DMSO-treated controls. On day 1, a larger footprint area indicates inhibition of aggregation. B. Histogram showing the effects of the indicated compounds on sphere growth. Changes in sphere footprint areas were calculated and normalized to the average size change of the unblinded vehicle-treated controls. On day 7, a smaller value indicates reduced growth. […] Data is presented as percentages±s.e.m. of 2-4 replicates. Representative images of samples treated with DMSO (C) and two priority inhibitors (D and E) are shown. Relative day 1 footprint areas and day 7 growth measurements are indicated for each example.\nas §1"}, "glioma cells": {"test_system": "glioma cells", "assay": "Glioma cell assays combined (scratch and sphere, several cell lines)", "format": "cell-based, human", "details": "100 μM; multiple assays and cell lines", "procedure": "FIG. 2 illustrates a schematic of a functional screening approach. Seventy-four PTPμ wedge-targeted compounds and 2 blinded DMSO samples were received from Atomwise and screened at 100 μM in scratch wound healing assays using two glioma cell lines (LN229 and U87). Selected active and control compounds were taken into secondary assays (Gli36 scratch and LN229 and Gli36 sphere formation and growth assays). Inhibitors selected as being active in primary and secondary screens were tested for effects on the survival of LN229 and Sf9 cells, and selected glioma-cell inhibitors and activators were screened for effects on Sf9-PTPμ aggregation, a highly specific test for PTPμ function.\n(§2) Cells were seeded at a density of 2.7×10^4 cells per well into the internal wells of Incuyte1 Imagelock 96-well plates (Essen BioScience Inc., Ann Arbor, MI) and cultured overnight to form monolayers. Monolayers were wounded with an IncuCyte1 96-well Woundmaker Tool per the manufacturer's instructions. The outer wells were filled with PBS to buffer edge effects, and then the wounded monolayers were cultured in 100 μl of fresh media with compounds or DMSO (2×replicates at 100 μM or 1%, respectively) at 37 °C and 5% CO2. Images were captured every 4 hrs. using an Incucyte live cell imaging system equipped with the Scratch Wound Module. Scratch wound widths were calculated, per the manufacturer's instructions, at TO and at endpoint (typically T12 for LN229 and U87 cells and T8 for Gli36), which was taken as the last timepoint before wound closure. The cell migration distance was calculated from scratch widths [(T0Width−TendpointWidth)/2] and normalized to the average distance migrated by the DMSO controls. Values are presented as average percentages±standard errors of the means (s.e.m.). The majority of compounds were screened with an n of two, but the n for priority hits ranges from 2-6.\nas §1"}, "U87 cells": {"test_system": "U87 cells", "assay": "U87 scratch wound healing assay", "format": "cell-based, human", "details": "100 μM; in words", "from_the_text": "FIGS. 11(A-D) illustrate a histogram and images of the results of the U87 scratch wound assays. A. Histogram showing the effects of all soluble wedge pocket-targeting compounds on U87 scratch wound closure. Cell movement into the scratches was quantified from scratch wound widths at the start and end of the assay and normalized to the average movement of cells in the unblinded DMSO control samples. Data is presented as average percentages±s.e.m., and compound bar codes are shown on the x-axis. Most compounds were screened with an n of 2-4. Representative images of scratch wounds treated with DMSO (A) or two priority inhibitors (C and D) are shown.\nas §2"}, "LN229 cells [2]": {"test_system": "LN229 cells", "assay": "LN229 scratch wound healing assay", "format": "cell-based, human", "from_the_text": "FIGS. 3(A-D) illustrate a histogram and images of the LN229 scratch wound assays. A. Histogram showing the effects of all soluble wedge-targeted compounds on LN229 scratch wound closure. Cell movement into the scratches was quantified from scratch wound widths at the start and end of the assay and normalized to the average movement of cells in the unblinded DMSO control samples. Data is presented as average percentages±standard error of the means (s.e.m.), and compound bar codes are shown on the x-axis. The majority of compounds were screened with an n=2. Some priority compounds were screened with 3-6 replicates. Representative endpoint images of samples treated with DMSO (B) and two priority inhibitors (C and D) are shown. The relative migration distances for each example are indicated.\nas §2\nScratch assays measure the ability of cells to migrate into a wound and close it creating a monolayer."}}, "note": "“Also recorded” adds a separate entry of the source.", "data": [{"smiles": "COc1ccc(CC(NC(=O)C2CC(NC(=O)CSC)CCN2C(=O)CCC(=O)O)C(N)=O)cc1", "note": "(stereo not shown) [Compound 247685114]", "values": [{"measurement": "Effect on PTPμ-dependent Sf9 aggregation / adhesion", "setting": "PTPμ", "value": "activate Sf9-PTPμ aggregation; also recorded: activate PTPμ-dependent adhesion; also recorded: considerable increase in aggregate numbers; also recorded: activator of PTPμ-dependent adhesion; also recorded: able to activate PTPμ-mediated aggregation"}, {"measurement": "Effect on LN229 sphere formation", "setting": "LN229 cells [1]; day 1", "value": "did not affect LN229 sphere formation or growth"}, {"measurement": "Effect on LN229 sphere growth", "setting": "LN229 cells [1]; day 7", "value": "did not affect LN229 sphere formation or growth"}, {"measurement": "Effect on Gli36 sphere formation", "setting": "Gli36 cells; 100 μM, day 1, in words", "value": "affected Gli36 spheres; also recorded: accelerate Gli36 sphere condensation and growth; also recorded: weakly stimulatory in U87 and LN229 scratch assays and Gli36 sphere formation and growth assays; also recorded: stimulate Gli36 sphere formation and growth"}, {"measurement": "Effect on Gli36 sphere growth", "setting": "Gli36 cells; 100 μM, day 7, in words", "value": "grew marginally faster than controls; also recorded: modest activator of Gli36 sphere growth; also recorded: weakly stimulatory in U87 and LN229 scratch assays and Gli36 sphere formation and growth assays; also recorded: stimulate Gli36 sphere formation and growth"}, {"measurement": "activity at 100 µM", "setting": "Gli36 cells; Homo sapiens, GLI36, 24 h, day 1, of the control area, read-out: Average day 1 sphere footprint area, Gli36", "value": 68, "unit": "%"}, {"measurement": "Effect on glioma cells, overall", "setting": "glioma cells", "value": "only weak, if any, activity in other glioma-cell assays"}, {"measurement": "Effect on U87 cell migration (scratch wound closure)", "setting": "U87 cells", "value": "did not reach our strict cut-off for an activator; also recorded: weakly stimulatory in U87 and LN229 scratch assays"}, {"measurement": "Effect on LN229 scratch wound closure / migration", "setting": "LN229 cells [2]; 100 μM, in words", "value": "moderately stimulated LN229; also recorded: weakly stimulatory in U87 and LN229 scratch assays"}, {"measurement": "activity at 100 µM", "setting": "LN229 cells [2]; Homo sapiens, LN-229, normalized to DMSO controls, read-out: LN229 scratch wound closure relative to DMSO controls", "value": "~120", "unit": "%"}]}]}
